This note sets out measurements from US20230002387A1, “2-AMINO-S6-SUBSTITUTED THIOPURINE COMPOUNDS AS INHIBITORS OF THE ENPP1 PROTEIN” (ATEN PORUS LIFESCIENCES PVT. LTD., priority 2019, published 2023).

Experiment [1] concerns LLC1 syngeneic tumor. In words: In vivo efficacy in LLC1 syngeneic tumor model (murine Lewis lung carcinoma). More on the design: species or system C57BL/6 mice. Conditions: for % TGI (vs Control): Day 15; for Tumor volume (mm^3), Mean, Day 15: SE in next cell; for Reduction of tumor volume compared among the dosing groups of the compound: IV dosing in combination with anti-PD-1 antibody (FIG. 4, 7, 10); for Effect on tumor volume in the murine Lewis lung carcinoma model: PO and IV dosing, alone or in combination with anti-PD-1 antibody (FIG. 4, 7, 10); for Tumor volume (mm^3), Mean ± SE, Day 1: baseline at start of treatment. The protocol:
The anti-tumor efficacy of Compound 155, 173 and 174 was evaluated in combination with an anti-PD-1 antibody (check point inhibitor) in LLC1, a syngeneic tumor model. Compounds were administered orally at a dose of 100 mg/kg, once daily. IV doses of the compound were administered at 10 mg/kg dose, twice weekly or Q3D (Compound 155 at 2 mg/Kg IV). Anti-PD-1 antibody was administered at a dose of 200 μg/animal via IP route on days 1, 5 and 9 (Table 5).
C57BL/6 mice (female, 7-8 weeks of age) were implanted subcutaneously with 0.2×10^6 LLC1 cells (ATCC® CRL-1642^Tm) to evaluate tumor growth in a murine Lewis lung carcinoma model. Tumor-bearing animals were randomized into different treatment groups of 8 animals based on tumor size criteria of about 50-60 mm^3 and dosed according to the schedule in Table 5.
Dosing protocol: The frequency for oral administration was once daily and IV administration was twice weekly for two weeks; anti-PD-1 antibody was administered via IP route on Days 1, 5 and 9.
Tumor measurement: Tumor growth was measured thrice weekly using a digital Vernier caliper. Tumor volume was calculated as: Tumor Volume (TV)=[Length (L)×Width (W)2]/2 (where length is the largest diameter and width is the smallest diameter of the tumor)
Efficacy Evaluation: Tumor growth inhibition (TGI) was calculated as: […]
Data Analysis: Statistical analysis of the data was performed by One-way ANOVA followed by Dunnett's test using GraphPad Prism (version 5.03).

The target of experiment [2] is T1, ENPP1 (Homo sapiens, UniProt P22413).
T1 sequence (P22413 1-925): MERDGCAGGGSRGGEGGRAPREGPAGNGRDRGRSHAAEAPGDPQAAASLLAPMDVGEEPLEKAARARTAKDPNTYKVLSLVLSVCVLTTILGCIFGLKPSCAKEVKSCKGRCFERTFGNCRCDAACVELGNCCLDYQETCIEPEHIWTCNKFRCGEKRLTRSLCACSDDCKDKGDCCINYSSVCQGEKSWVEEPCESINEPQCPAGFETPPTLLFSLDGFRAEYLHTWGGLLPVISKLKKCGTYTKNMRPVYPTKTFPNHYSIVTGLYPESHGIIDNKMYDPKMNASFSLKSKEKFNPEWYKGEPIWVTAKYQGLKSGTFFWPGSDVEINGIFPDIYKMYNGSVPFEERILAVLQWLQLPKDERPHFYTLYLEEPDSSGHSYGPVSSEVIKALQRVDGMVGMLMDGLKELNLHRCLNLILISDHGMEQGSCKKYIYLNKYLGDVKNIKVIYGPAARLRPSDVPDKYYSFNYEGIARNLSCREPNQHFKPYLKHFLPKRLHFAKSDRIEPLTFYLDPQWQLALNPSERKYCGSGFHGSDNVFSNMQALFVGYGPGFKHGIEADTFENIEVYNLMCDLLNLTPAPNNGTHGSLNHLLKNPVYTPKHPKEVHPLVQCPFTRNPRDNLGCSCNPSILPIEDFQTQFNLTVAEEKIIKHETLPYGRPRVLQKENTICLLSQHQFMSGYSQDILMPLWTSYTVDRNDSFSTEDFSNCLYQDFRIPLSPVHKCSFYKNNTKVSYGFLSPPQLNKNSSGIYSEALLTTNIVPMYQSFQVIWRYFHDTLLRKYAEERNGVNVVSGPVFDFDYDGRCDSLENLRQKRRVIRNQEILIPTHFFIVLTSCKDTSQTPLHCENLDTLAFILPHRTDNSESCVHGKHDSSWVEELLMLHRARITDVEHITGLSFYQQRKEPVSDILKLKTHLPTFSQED
In words: Capillary electrophoresis-based NPP assay with ATP as a substrate (ENPP1 inhibition, Ki). It is filed as biochemical. Conditions: Ki from IC50 by Cheng-Prusoff, 400 μM ATP. The method, then:
Here, a Capillary Electrophoresis based method was used to determine the IC50 values for ENPP1 Inhibitors for ENNP1 protein.
The inhibitors synthesized were assessed for ENPP1 inhibitory potency against the natural substrate ATP. The enzyme inhibition assays were performed in 10 mM 2-(N-cyclohexylamino)-ethanesulfonic acid (CHES) buffer (pH 10.0) including 1 mM MgCl2, 2 mM CaCl2), and 400 μM of ATP, with different inhibitor concentrations. The reaction mixture was incubated with 20 ng human NPP1 at 37° C. for 30 min in a final volume of 100 μL, and the reactions were stopped by heating at 90° C. for 3 min. Finally, the reaction mixtures were directly measured by capillary electrophoresis (CE). The CE instrumentation and operating conditions were as follows: P/ACE MDQ capillary electrophoresis system (Beckman Instruments, Fullerton, Calif., USA) with a DAD detection system, polyacrylamide-coated capillaries of 40 cm effective length×[…] (id) obtained from CS Chromatographie GmbH (Langerwehe, Germany), 50 mM phosphate buffer (pH 6.5) as running buffer, electrokinetic injection (−6 kV, 60 s), separation voltage of −15 kV. The amounts of AMP produced were measured at 260 nm. Data collection and peak area analysis were performed by 32 Karat software obtained from Beckman Coulter (Fullerton, Calif., USA).
The IC50 values of test compounds were calculated by plotting data in the program Prism 5.0, and the Ki values were calculated from the IC50 values with the Cheng-Prusoff equation (Tables 2-4).

Setting [3] is: IV 10 mg/kg twice weekly + anti-PD-1 200 μg/animal IP Q4D x 3.
Setting [4] is: IV 10 mg/kg twice weekly, alone.
[5] abbreviates: PO 100 mg/kg QD x 14 + anti-PD-1 200 μg/animal IP Q4D x 3.
[6] abbreviates: IV 2 mg/kg twice weekly + anti-PD-1 200 μg/animal IP Q4D x 3.

On to `COc1cc(NC(=O)C(C)Sc2nc(N)nc3nc[nH]c23)ccc1O` (centres unmarked) [Compound 173], for which the “% TGI (vs Control)” value in experiment [1] (setting [3]) is listed as 53%; in experiment [1] (setting [4]), 48%; in experiment [1] (setting [5]) it was 47%; in experiment [1] (PO 100 mg/kg QD x 14, alone), 37%. The “Tumor volume (mm^3), Mean, Day 15” value in experiment [1] (setting [3]) is 856 mm^3; in experiment [1] (setting [4]) it was 926 mm^3; in experiment [1] (setting [5]) it was 945 mm^3; in experiment [1] (PO 100 mg/kg QD x 14, alone), 1126 mm^3. The “Reduction of tumor volume compared among the dosing groups of the compound” value (from here on “Reduction of tumor volume”) in experiment [1] is “greatest reduction”. For the same molecule, the “Effect on tumor volume in the murine Lewis lung carcinoma model” value in experiment [1] is “reduced tumor volume”. The “Tumor volume (mm^3), Mean ± SE, Day 1” value in experiment [1] (IV 10 mg/kg + anti-PD-1 group) was determined as 50 ± 1.4 mm^3; in experiment [1] (IV 10 mg/kg alone group), 50 ± 1.3 mm^3; in experiment [1] (PO 100 mg/kg + anti-PD-1 group), 50 ± 1.4 mm^3; in experiment [1] (PO 100 mg/kg alone group) it was 50 ± 1.4 mm^3. Also, the Ki – broadly, the equilibrium dissociation constant of an inhibitor or competing ligand from its target – in experiment [2] (bin of Table 2) is at most 100 nM.

As to `Nc1nc(SCC(=O)Nc2ccc(O)c(C(=O)O)c2)c2[nH]cnc2n1` [Compound 155], the “% TGI (vs Control)” value stood at 57% in experiment [1] (setting [6]); 47% in experiment [1] (IV 2 mg/kg twice weekly, alone); 44% in experiment [1] (setting [5]); 33% in experiment [1] (PO 100 mg/kg QD x 14, alone). The “Tumor volume (mm^3), Mean, Day 15” value came out at 787 mm^3 in experiment [1] (setting [6]); 956 mm^3 in experiment [1] (IV 2 mg/kg twice weekly, alone); 1008 mm^3 in experiment [1] (setting [5]); 1191 mm^3 in experiment [1] (PO 100 mg/kg QD x 14, alone). The “Reduction of tumor volume” value in experiment [1] was “greatest reduction”. For the same molecule, the “Effect on tumor volume in the murine Lewis lung carcinoma model” value in experiment [1] is on record as “reduced tumor volume”. Besides, the “Tumor volume (mm^3), Mean ± SE, Day 1” value is listed as 50 ± 1.4 mm^3 in experiment [1] (IV 2 mg/kg + anti-PD-1 group), 51 ± 2.0 mm^3 in experiment [1] (IV 2 mg/kg alone group), 50 ± 1.4 mm^3 in experiment [1] (PO 100 mg/kg + anti-PD-1 group) and 50 ± 1.4 mm^3 in experiment [1] (PO 100 mg/kg alone group). For the same molecule, the inhibitory constant (Ki) in experiment [2] (bin of Table 2) is at most 100 nM.

On to `CCC(Sc1nc(N)nc2nc[nH]c12)C(=O)Nc1ccc(O)c(OC)c1` (centres unmarked) [Compound 174], for which the “% TGI (vs Control)” value in experiment [1] (setting [3]) is reported as 57%; in experiment [1] (setting [4]), 48%; in experiment [1] (setting [5]), 60%; in experiment [1] (PO 100 mg/kg QD x 14, alone), 52%. Moreover, the entries for the “Tumor volume (mm^3), Mean, Day 15” value in experiment [1] (setting [3]), in experiment [1] (setting [4]) and in experiment [1] (setting [5]) were 778 mm^3, 930 mm^3 and 724 mm^3, respectively. The “Reduction of tumor volume” value in experiment [1] is recorded as “greatest reduction”. For the same molecule, the “Tumor volume (mm^3), Mean ± SE, Day 1” value in experiment [1] (IV 10 mg/kg + anti-PD-1 group) is reported as 50 ± 1.2 mm^3; in experiment [1] (IV 10 mg/kg alone group), 50 ± 1.1 mm^3; in experiment [1] (PO 100 mg/kg + anti-PD-1 group), 50 ± 1.2 mm^3; in experiment [1] (PO 100 mg/kg alone group), 50 ± 1.3 mm^3.

Molecule `CCOc1nc(NC(=O)[C@H](CC)Sc2nc(N)nc3nc[nH]c23)ncc1Cl` [Compound 677] displayed a Ki in experiment [2] (bin of Table 2) of at most 100 nM.

The molecule `Nc1nc(SCC(=O)Nc2ccc3c(c2)OCO3)c2[nH]cnc2n1` [Compound 78] yielded a Ki in experiment [2] (bin of Table 2) of at most 100 nM.

As for `Nc1nc(SCC(=O)Nc2ccc3c(c2)OC(F)(F)O3)c2[nH]cnc2n1` [Compound 90], the Ki in experiment [2] (bin of Table 4) was at least 1000 nM.

On to `CCOc1nc(NC(=O)[C@@H](Sc2nc(N)nc3nc[nH]c23)C(C)C)ncc1Br` [Compound 681], for which the Ki in experiment [2] (bin of Table 2) is at most 100 nM.

`COc1ccc(NC(=O)CSc2nc(N)nc3ncn(C)c23)cc1OC` [Compound 98]: in experiment [2] (bin of Table 4), the inhibitory constant (Ki) was at least 1000 nM.

In turn, `COc1ccnc(NC(=O)[C@H](Cc2ccccc2)Sc2nc(N)nc3nc[nH]c23)n1` [Compound 517] showed a Ki in experiment [2] (bin of Table 2) of at most 100 nM.

Molecule `COc1ccnc(NC(=O)CSc2nc(N)nc3nc[nH]c23)n1` [Compound 201] came in with a Ki in experiment [2] (bin of Table 2) of at most 100 nM.

As for `COc1cc(NC(=O)[C@H](Sc2nc(N)nc3nc[nH]c23)c2ccccc2)ccc1O` [Compound 329], in experiment [2] (bin of Table 2), the inhibitory constant (Ki) is at most 100 nM.

In experiment [2] (bin of Table 2), `COc1ccnc(NC(=O)[C@H](Sc2nc(N)nc3nc[nH]c23)C(C)C)n1` [Compound 511] yielded a Ki of at most 100 nM.

Molecule `COc1ccnc(NC(=O)[C@@H](C)Sc2nc(N)nc3nc[nH]c23)n1` [Compound 486] yielded an inhibition constant (Ki) in experiment [2] (bin of Table 2) of at most 100 nM.

In experiment [2] (bin of Table 2), `COc1ccnc(NC(=O)CSc2nc(N)nc3nc[nH]c23)c1` [Compound 109] displayed a Ki of at most 100 nM.

Take `CC(C)[C@H](Sc1nc(N)nc2nc[nH]c12)C(=O)Nc1ccc(O)c(C(=O)O)c1` [Compound 269]: the Ki in experiment [2] (bin of Table 2) is at most 100 nM.

`COc1ccc(NC(=O)Cn2cnc3cnccc32)cc1OC` [Compound 11]: in experiment [2] (bin of Table 4), the Ki was at least 1000 nM.

Take `COc1cc(NC(=O)[C@H](CC(C)C)Sc2nc(N)nc3nc[nH]c23)ccc1O` [Compound 272]: in experiment [2] (bin of Table 2), the Ki is at most 100 nM.

In the case of `COc1nc(NC(=O)[C@H](Cc2ccccc2)Sc2nc(N)nc3nc[nH]c23)ncc1Br` [Compound 555], the Ki in experiment [2] (bin of Table 2) is at most 100 nM.

In turn, `COc1cc(NC(=O)[C@@H](Sc2nc(N)nc3nc[nH]c23)C(C)C)ccc1O` [Compound 270] had a Ki in experiment [2] (bin of Table 2) of at most 100 nM.

On to `COc1ccnc(NC(=O)[C@@H](Cc2ccccc2)Sc2nc(N)nc3nc[nH]c23)n1` [Compound 516], for which, in experiment [2] (bin of Table 2), the inhibition constant (Ki) was at most 100 nM.
